Test systems include HL-60(TB) leukemia; HOP-62 NSCLC; HT29 colon; LOX IMVI melanoma; MDA-MB-231 breast; SF-295 CNS; SNB-75 CNS; SW-620 colon; TK-10 renal; U251 CNS; COLO 205 colon; KM12 colon.
Holding throughout (experiment): NCI-60 cell line screen, 48 h

The structures appear in SMILES notation.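 Five concentrations, 48 hours, 96-well plates. Definition used: TGI = concentration required for complete inhibition of growth.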

As for `O=C1c2ccccc2CC12Cc1cc3c(cc1C2=O)CCC3` (stereo not given), the TGI with HL-60(TB) leukemia, in the test on HOP-62 NSCLC, with HT29 colon, with LOX IMVI melanoma, with MDA-MB-231 breast and with SF-295 CNS was over 100 µM throughout. Also, the TGI in the test on SNB-75 CNS, in the test on SW-620 colon, in the test on TK-10 renal and in the test on U251 CNS was over 100 µM each time.
As to `O=C1CCCc2c1c1c(n2Cc2ccccc2)-c2ccccc2C1=O`, the TGI in the test on COLO 205 colon is 42.8 µM; in the test with HL-60(TB) leukemia, 58.7 µM; with HOP-62 NSCLC, 50.2 µM; in the test with HT29 colon it was over 100 µM; in the test on KM12 colon, 47 µM; with LOX IMVI melanoma it was 39.5 µM. The TGI in the test on MDA-MB-231 breast is 42.9 µM; with SF-295 CNS it was 37.5 µM; in the test on SNB-75 CNS it was over 100 µM; in the test with SW-620 colon, over 100 µM; with TK-10 renal it was 31.4 µM; in the test with U251 CNS, 43.9 µM.
In the case of `OCCN(CCO)c1ccc2c(C(F)(F)F)cc(C(F)(F)F)nc2n1`, the TGI in the test on COLO 205 colon, in the test on HL-60(TB) leukemia, with HOP-62 NSCLC, in the test with HT29 colon, in the test on KM12 colon and in the test on LOX IMVI melanoma was over 100 µM throughout. In addition, the TGI with MDA-MB-231 breast, with SF-295 CNS, with SNB-75 CNS, in the test on SW-620 colon, with TK-10 renal and in the test with U251 CNS was over 100 µM throughout.
Regarding `Cc1cc(N(CCC#N)CCC#N)ccc1/C(N=Nc1cccc([N+](=O)[O-])c1)=N/NC(=O)c1cc(Cl)ccc1O`, the TGI in the test with COLO 205 colon was 38.8 µM; in the test on HL-60(TB) leukemia, 37.8 µM; in the test on HOP-62 NSCLC it was over 100 µM; in the test on HT29 colon, over 100 µM; in the test with KM12 colon, over 100 µM; in the test on LOX IMVI melanoma, 49.3 µM. In addition, the TGI in the test with MDA-MB-231 breast was 53.5 µM; in the test with SF-295 CNS it was over 100 µM; in the test on SNB-75 CNS, 82.6 µM; in the test with SW-620 colon, over 100 µM; in the test with TK-10 renal, over 100 µM; with U251 CNS it was over 100 µM.
Consider `c1ccc(N=C2SC(=NNc3ccccc3)SC2=Nc2ccccc2)cc1`, for which the TGI in the test with COLO 205 colon, in the test on HL-60(TB) leukemia, in the test on HOP-62 NSCLC, in the test with HT29 colon, in the test on KM12 colon and in the test on LOX IMVI melanoma was over 100 µM each time. Moreover, the TGI in the test with MDA-MB-231 breast, in the test on SF-295 CNS, in the test on SNB-75 CNS, in the test on SW-620 colon, with TK-10 renal and in the test on U251 CNS was over 100 µM throughout.
For the compound `O=C(Cn1nc(Br)c(Br)c1Br)c1ccccc1`, the TGI was 36.9 µM with COLO 205 colon; 30.5 µM in the test on HL-60(TB) leukemia; over 100 µM in the test on HOP-62 NSCLC; 43.5 µM in the test with HT29 colon; over 100 µM in the test with KM12 colon; 32.2 µM in the test on LOX IMVI melanoma. Moreover, the TGI in the test on MDA-MB-231 breast was 84.5 µM; in the test with SF-295 CNS it was 91.5 µM; in the test on SNB-75 CNS, 63.8 µM; with SW-620 colon, over 100 µM; in the test on TK-10 renal, 53.1 µM; in the test with U251 CNS it was over 100 µM.
On to `O=C1NC2(CCCCC2)N=C2C(Cl)CCCC12Cl` (stereo not given), for which the TGI in the test with COLO 205 colon, in the test on HL-60(TB) leukemia, in the test on HOP-62 NSCLC, in the test with HT29 colon, in the test with KM12 colon and in the test with LOX IMVI melanoma was over 100 µM throughout. For the same compound, the TGI in the test with MDA-MB-231 breast, in the test with SF-295 CNS, in the test with SNB-75 CNS, in the test with SW-620 colon, in the test on TK-10 renal and in the test on U251 CNS was over 100 µM in each case.
In the case of `CC(C)C(C/C=C1/CC(CO)(COC(=O)CC(C(C)C)C(C)C)OC1=O)C(C)C` (stereo not given), the TGI worked out at 3.33 µM in the test with COLO 205 colon; 11.7 µM with HL-60(TB) leukemia; 18.3 µM in the test on HOP-62 NSCLC; 30.5 µM in the test on HT29 colon; 21.6 µM with KM12 colon; 20.8 µM with LOX IMVI melanoma. Further, the TGI in the test with MDA-MB-231 breast was 18.5 µM; with SF-295 CNS it was 16.5 µM; with SNB-75 CNS it was 18.8 µM; in the test on SW-620 colon, 18.1 µM; with TK-10 renal, 16.1 µM; with U251 CNS, 25.3 µM.
For `CC(=O)Nc1ncc(Sc2ccccc2C(=O)O)s1`, the TGI in the test with COLO 205 colon, in the test on HL-60(TB) leukemia, with HOP-62 NSCLC, in the test on HT29 colon, in the test with KM12 colon and in the test with LOX IMVI melanoma was over 100 µM in each case. Further, the TGI in the test on MDA-MB-231 breast, with SF-295 CNS, in the test on SNB-75 CNS, in the test with SW-620 colon, with TK-10 renal and with U251 CNS was over 100 µM throughout.
Turning to `O=C1c2cc3ccccc3cc2C2(c3ccc(Cl)cc3)N[C@H]3CCCC[C@@H]3N12` (stereo not given in full), the TGI in the test on COLO 205 colon is over 100 µM; in the test with HL-60(TB) leukemia, 55.6 µM; in the test on HOP-62 NSCLC it was 20.3 µM; in the test on HT29 colon, 53.5 µM; with KM12 colon, 48.2 µM; in the test on LOX IMVI melanoma, 55.8 µM. For the same compound, the TGI amounted to 36.2 µM in the test on MDA-MB-231 breast; 32.4 µM in the test on SF-295 CNS; 37.5 µM in the test with SNB-75 CNS; 59.3 µM in the test on SW-620 colon; 27.3 µM in the test with TK-10 renal; 30.1 µM in the test on U251 CNS.
For `NNC(=O)CNC(=O)CSc1nnc(COc2ccc(Cl)cc2)n1-c1ccccc1`, the TGI with COLO 205 colon, with HL-60(TB) leukemia, in the test on HOP-62 NSCLC, with HT29 colon, with KM12 colon and in the test on LOX IMVI melanoma was over 100 µM each time. Also, the TGI in the test with MDA-MB-231 breast, with SF-295 CNS, in the test with SNB-75 CNS, with SW-620 colon, in the test with TK-10 renal and in the test on U251 CNS was over 100 µM throughout.

Source of the values: PubChem BioAssay (NCI).
